Source: ChEMBL document CHEMBL3774331, “Inhibition of tau aggregation using a naturally-occurring cyclic peptide scaffold” (Eur J Med Chem, 2016)
Active and inactive are the calls of the source. No cut-off for these calls is given here. Where a SMILES comes first, the peptide text is derived from it. Bridges are numbered along the chain shown (N, C = ends).

Assay: Inhibition of TAU derived synthetic hexapeptide AcPHF6 fibril formation at compound:AcPHF6 ratio of 1:1 to 1:64 incubated for 60 mins by thioflavin S fluorescence assay

| SMILES | inhibition |
| --- | --- |
| CC[C@H](C)[C@@H]1NC(=O)[C@@H]2CCCN2C(=O)[C@@H]2CCCN2C(=O)[C@H]([C@@H](C)CC)NC(=O)[C@H](CO)NC(=O)[C@H](C)NC(=O)[C@H]([C@@H](C)O)NC(=O)[C@@H]2CSSC[C@H](NC1=O)C(=O)N[C@@H](Cc1ccccc1)C(=O)N1CCC[C@H]1C(=O)N[C@@H](CC(=O)O)C(=O)NCC(=O)N[C@@H](CCCNC(=N)N)C(=O)N2 (cyclo(ASIPPICFPDGRCT); disulfide 7-13) | Active |
| CC[C@H](C)[C@@H]1NC(=O)[C@@H]2CCCN2C(=O)[C@@H]2CCCN2C(=O)[C@H]([C@@H](C)CC)NC(=O)[C@H](CO)NC(=O)[C@H](Cc2ccccc2)NC(=O)[C@H](CC(N)=O)NC(=O)[C@@H]2CSSC[C@H](NC1=O)C(=O)N[C@@H](CCC(N)=O)C(=O)N[C@@H](CCCCN)C(=O)N[C@@H](CO)C(=O)N1CCC[C@H]1C(=O)N[C@@H](CC(=O)O)C(=O)NCC(=O)N[C@@H](CO)C(=O)N[C@@H](CC(N)=O)C(=O)N[C@@H](CCC(N)=O)C(=O)N2 (cyclo(CNFSIPPICQKSPDGSNQ); disulfide 1-9) | Active |
| CC[C@H](C)[C@@H]1NC(=O)[C@H](CCC(N)=O)NC(=O)[C@H](C(C)C)NC(=O)CNC(=O)[C@H](CC(=O)O)NC(=O)[C@@H]2CCCN2C(=O)[C@H](C(C)C)NC(=O)[C@H](CCCCN)NC(=O)[C@H]([C@@H](C)CC)NC(=O)[C@@H]2CSSC[C@H](NC1=O)C(=O)N[C@@H](Cc1ccc(O)cc1)C(=O)N[C@@H](CCCCN)C(=O)N[C@@H](CO)C(=O)N[C@@H]([C@@H](C)CC)C(=O)N1CCC[C@H]1C(=O)N1CCC[C@H]1C(=O)N[C@@H]([C@@H](C)CC)C(=O)N2 (cyclo(CIKVPDGVQICYKSIPPI); disulfide 1-11) | Active |
| CC[C@H](C)[C@@H]1NC(=O)[C@H](CCC(=O)O)NC(=O)[C@@H]2CCCN2C(=O)[C@H](Cc2cnc[nH]2)NC(=O)[C@H](CC(=O)O)NC(=O)[C@H](Cc2ccc(O)cc2)NC(=O)[C@H](CC(N)=O)NC(=O)[C@H]2CSSC[C@H](NC(=O)CN)C(=O)N[C@@H](CSSC[C@@H](C(=O)NCC(=O)NCC(=O)N[C@@H](C)C(=O)NCC(=O)NCC(=O)O)NC1=O)C(=O)N[C@H](CO)C(=O)N[C@@H](CC(=O)O)C(=O)N1CCC[C@H]1C(=O)N[C@H](CCCNC(=N)N)C(=O)N2 | inactive |
| CC[C@@H](C)[C@H]1NC(=O)[C@@H]2CCCN2C(=O)[C@@H]2CCCN2C(=O)[C@H]([C@@H](C)CC)NC(=O)[C@H](CO)NC(=O)[C@H](CC(N)=O)NC(=O)[C@H](CCC(=O)O)NC(=O)[C@@H]2CSSC[C@H](NC1=O)C(=O)N[C@@H](CCC(N)=O)C(=O)N[C@H](CCCCN)C(=O)N[C@H](CC(C)C)C(=O)N1CCC[C@H]1C(=O)N[C@H](CC(=O)O)C(=O)NCC(=O)N[C@H](CC(C)C)C(=O)N[C@@H](Cc1ccc(O)cc1)C(=O)N[C@H](CCC(N)=O)C(=O)N2 | Active |
| CC[C@H](C)[C@@H]1NC(=O)[C@@H]2CCCN2C(=O)[C@@H]2CCCN2C(=O)[C@H]([C@@H](C)CC)NC(=O)[C@H](CO)NC(=O)[C@H](CCCCN)NC(=O)[C@H]([C@@H](C)O)NC(=O)[C@H](C)NC(=O)[C@H](CCCNC(=N)N)NC(=O)CNC(=O)[C@H](CC(=O)O)NC(=O)[C@@H]2CCCN2C(=O)[C@H](Cc2ccccc2)NC(=O)[C@H](C)NC1=O (cyclo(AFPDGRATKSIPPI)) | Active |
| CC[C@H](C)[C@@H]1NC(=O)[C@H](CCC(N)=O)NC(=O)[C@H](C(C)C)NC(=O)CNC(=O)[C@H]2CCCN2C(=O)[C@H](C(C)C)NC(=O)[C@H](CCCCN)NC(=O)[C@H]([C@@H](C)CC)NC(=O)[C@@H]2CSSC[C@H](NC1=O)C(=O)N[C@@H](Cc1ccc(O)cc1)C(=O)N[C@@H](CCCCN)C(=O)N[C@@H](CO)C(=O)N[C@@H]([C@@H](C)CC)C(=O)N1CCC[C@H]1C(=O)N1CCC[C@H]1C(=O)NCC(=O)N2 | Active |
| CC[C@H](C)[C@@H]1NC(=O)[C@@H]2CSSC[C@H](NC(=O)[C@H]([C@@H](C)CC)NC(=O)[C@H](CCC(N)=O)NC(=O)[C@H](C(C)C)NC(=O)CNC(=O)[C@H]3CCCN3C(=O)[C@H](C(C)C)NC(=O)[C@H](C)NC1=O)C(=O)N[C@@H](Cc1ccc(O)cc1)C(=O)N[C@@H](CCCCN)C(=O)N[C@@H](CO)C(=O)N[C@@H]([C@@H](C)CC)C(=O)N1CCC[C@H]1C(=O)N1CCC[C@H]1C(=O)N[C@@H]([C@@H](C)CC)C(=O)N2 | Active |
| CC[C@H](C)[C@@H]1NC(=O)[C@H](CCC(N)=O)NC(=O)[C@H](C(C)C)NC(=O)CNC(=O)[C@H]2CCCN2C(=O)[C@H](C(C)C)NC(=O)[C@H](CCC(N)=O)NC(=O)[C@H]([C@@H](C)CC)NC(=O)[C@@H]2CSSC[C@H](NC1=O)C(=O)N[C@@H](Cc1ccc(O)cc1)C(=O)N[C@@H](CCCCN)C(=O)N[C@@H](CO)C(=O)N[C@@H]([C@@H](C)CC)C(=O)N1CCC[C@H]1C(=O)N1CCC[C@H]1C(=O)N[C@@H]([C@@H](C)CC)C(=O)N2 | Active |
| CC[C@H](C)[C@@H]1NC(=O)[C@H](CCC(N)=O)NC(=O)[C@H](C(C)C)NC(=O)CNC(=O)[C@H]2CCCN2C(=O)[C@H](C(C)C)NC(=O)[C@H](C)NC(=O)[C@H](Cc2ccccc2)NC(=O)[C@@H]2CSSC[C@H](NC1=O)C(=O)N[C@@H](Cc1ccc(O)cc1)C(=O)N[C@@H](CCCCN)C(=O)N[C@@H](CO)C(=O)N[C@@H]([C@@H](C)CC)C(=O)N1CCC[C@H]1C(=O)N1CCC[C@H]1C(=O)N[C@@H]([C@@H](C)CC)C(=O)N2 | Active |
| CC[C@H](C)[C@@H]1NC(=O)[C@H](CCC(N)=O)NC(=O)[C@H](C(C)C)NC(=O)CNC(=O)[C@H]2CCCN2C(=O)[C@H](C(C)C)NC(=O)[C@H](C)N(C)C(=O)[C@H]([C@@H](C)CC)NC(=O)[C@H](C)NC(=O)[C@H]([C@@H](C)CC)NC(=O)[C@@H]2CCCN2C(=O)[C@@H]2CCCN2C(=O)[C@H]([C@@H](C)CC)NC(=O)[C@H](CO)NC(=O)[C@H](CCCCN)NC(=O)[C@H](Cc2ccc(O)cc2)NC(=O)[C@H](C(C)C)NC1=O | Active |
| CC[C@@H](C)[C@@H]1NC(=O)[C@@H]2CSSC[C@H](NC(=O)[C@@H]([C@H](C)CC)NC(=O)CNC(=O)[C@H]3CCCN3C1=O)C(=O)N[C@H](Cc1ccc(O)cc1)C(=O)N[C@H](CCCCN)C(=O)N[C@H](CO)C(=O)N[C@H]([C@H](C)CC)C(=O)N1CCC[C@H]1C(=O)N1CCC[C@H]1C(=O)NCC(=O)N2 | Active |
| CC[C@H](C)[C@@H]1NC(=O)[C@@H]2CSSC[C@H](NC(=O)[C@H]([C@@H](C)CC)NC(=O)[C@H](CCC(N)=O)NC(=O)[C@@H]3CCCN3C(=O)[C@@H]3CCCN3C(=O)[C@H](C)NC1=O)C(=O)N[C@@H](Cc1ccc(O)cc1)C(=O)N[C@@H](CCCCN)C(=O)N[C@@H](CO)C(=O)N[C@@H]([C@@H](C)CC)C(=O)N1CCC[C@H]1C(=O)N1CCC[C@H]1C(=O)NCC(=O)N2 (cyclo(APPQICYKSIPPGCI); disulfide 6-14) | Active |
| CC(C)C[C@H](NC(=O)CN)C(=O)N1CCC[C@H]1C(=O)N[C@H](C(=O)N[C@@H]1CSSC[C@H]2NC(=O)CNC(=O)[C@@H]3CCCN3C(=O)[C@H]([C@@H](C)O)NC(=O)[C@@H](CC(N)=O)NC(=O)[C@H]3CSSC[C@H](C(=O)N[C@@H](C(=O)N[C@H](CCCNC(=N)N)C(=O)N[C@@H](CC(N)=O)C(=O)O)[C@@H](C)O)NC(=O)[C@H](C(C)C)NC(=O)[C@H]4CCCN4C(=O)[C@@H](Cc4c[nH]c5ccccc45)NC(=O)[C@H](CO)NC(=O)[C@@H](CSSC[C@@H](NC(=O)[C@@H]([C@@H](C)O)NC(=O)[C@@H](CCC(=O)O)NC(=O)CNC1=O)C(=O)N[C@@H](C(C)C)C(=O)NCC(=O)NCC(=O)N[C@@H]([C@@H](C)O)C(=O)N3)NC(=O)[C@@H]([C@H](C)O)NC2=O)C(C)C | Active |
